Positions count from the first letter of the chain named. Activity calls are given as the source filed them. No cut-off for these calls is given here.
Assays:
[1] = molecular target: T1, Muscarinic acetylcholine receptor M1 (Homo sapiens, UniProt P11229); type: functional, cell-based, CHO
T1 sequence (P11229 whole entry): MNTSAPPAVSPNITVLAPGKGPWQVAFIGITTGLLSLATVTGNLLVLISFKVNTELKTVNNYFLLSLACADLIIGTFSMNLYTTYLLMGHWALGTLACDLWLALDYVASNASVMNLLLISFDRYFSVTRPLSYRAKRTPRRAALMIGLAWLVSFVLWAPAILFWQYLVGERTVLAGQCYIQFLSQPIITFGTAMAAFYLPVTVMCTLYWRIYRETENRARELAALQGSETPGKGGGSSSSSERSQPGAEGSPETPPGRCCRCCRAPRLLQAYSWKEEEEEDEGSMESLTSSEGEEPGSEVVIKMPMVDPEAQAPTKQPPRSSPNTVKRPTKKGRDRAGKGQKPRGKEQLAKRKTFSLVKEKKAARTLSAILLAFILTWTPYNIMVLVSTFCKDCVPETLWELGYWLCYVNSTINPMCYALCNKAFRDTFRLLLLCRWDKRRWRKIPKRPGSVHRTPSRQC
Description: Inhibitory activity against human Muscarinic acetylcholine receptor M1 using [3H]quinuclidinyl benzilate to label antagonist site (RQNB) in CHO cells

[2] = molecular target: Muscarinic acetylcholine receptor; test: Compound was evaluated for inhibition of [3H]cis-methyldioxolane binding to label agonist sites (RCMD) in rat neocortex
[3] = molecular target: T2, Muscarinic receptor M1 and M2 (Rattus norvegicus, UniProt P08482+P10980); test: Compound was evaluated for its inhibition of [3H]quinuclidinyl benzilate binding to label antagonist site (RQNB) in rat neocortex
T2 sequence (P08482 whole entry): T1 sequence (P11229 whole entry) with A5V, T254S, P309S, R320K, A337G, I413V
T2 sequence (P10980 whole entry): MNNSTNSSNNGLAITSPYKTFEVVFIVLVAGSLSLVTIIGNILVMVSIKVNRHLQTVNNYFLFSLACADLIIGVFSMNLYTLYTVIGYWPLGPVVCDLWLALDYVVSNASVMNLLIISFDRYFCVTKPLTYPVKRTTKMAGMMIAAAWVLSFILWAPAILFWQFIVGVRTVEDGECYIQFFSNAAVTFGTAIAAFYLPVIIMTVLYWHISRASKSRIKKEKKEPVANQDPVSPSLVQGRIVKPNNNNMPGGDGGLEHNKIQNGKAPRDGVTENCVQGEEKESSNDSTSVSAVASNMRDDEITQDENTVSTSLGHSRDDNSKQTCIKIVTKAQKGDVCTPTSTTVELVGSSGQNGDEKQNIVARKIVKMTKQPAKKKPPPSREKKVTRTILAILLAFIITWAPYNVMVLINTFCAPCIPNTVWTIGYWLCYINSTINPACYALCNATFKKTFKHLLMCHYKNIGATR

[4] = molecular target: T3, Muscarinic acetylcholine receptor M2 (Homo sapiens, UniProt P08172); test: Inhibitory activity against human Muscarinic acetylcholine receptor M2 using [3H]quinuclidinyl benzilate to label antagonist site (RQNB) in CHO cells; type: cell-based
T3 sequence (P08172 whole entry): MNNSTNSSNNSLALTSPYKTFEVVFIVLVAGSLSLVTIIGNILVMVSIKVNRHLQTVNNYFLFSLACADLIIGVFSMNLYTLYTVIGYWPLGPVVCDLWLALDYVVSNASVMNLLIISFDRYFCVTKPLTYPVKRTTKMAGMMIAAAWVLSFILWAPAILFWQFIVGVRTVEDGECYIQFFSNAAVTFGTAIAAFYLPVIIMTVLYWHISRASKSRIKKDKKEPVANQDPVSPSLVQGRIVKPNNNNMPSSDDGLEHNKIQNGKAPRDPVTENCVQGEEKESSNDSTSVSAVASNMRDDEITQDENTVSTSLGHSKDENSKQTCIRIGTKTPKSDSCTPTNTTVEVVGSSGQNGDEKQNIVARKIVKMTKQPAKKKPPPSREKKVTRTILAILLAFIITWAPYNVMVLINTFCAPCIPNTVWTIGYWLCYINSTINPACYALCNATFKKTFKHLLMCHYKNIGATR

[5] = molecular target: T4, Muscarinic acetylcholine receptor M3 (Homo sapiens, UniProt P20309); test: Evaluated for its MIPA (muscarinic-stimulated inositol phosphate accumulation) activity measured in SK-N-SH neuroblastoma cells expressing human muscarinic m3 receptor, compound run at 100 uM;100 uM of carbachol was used; type: functional, cell-based
Target sequence in this assay (P20309 whole entry, looked up): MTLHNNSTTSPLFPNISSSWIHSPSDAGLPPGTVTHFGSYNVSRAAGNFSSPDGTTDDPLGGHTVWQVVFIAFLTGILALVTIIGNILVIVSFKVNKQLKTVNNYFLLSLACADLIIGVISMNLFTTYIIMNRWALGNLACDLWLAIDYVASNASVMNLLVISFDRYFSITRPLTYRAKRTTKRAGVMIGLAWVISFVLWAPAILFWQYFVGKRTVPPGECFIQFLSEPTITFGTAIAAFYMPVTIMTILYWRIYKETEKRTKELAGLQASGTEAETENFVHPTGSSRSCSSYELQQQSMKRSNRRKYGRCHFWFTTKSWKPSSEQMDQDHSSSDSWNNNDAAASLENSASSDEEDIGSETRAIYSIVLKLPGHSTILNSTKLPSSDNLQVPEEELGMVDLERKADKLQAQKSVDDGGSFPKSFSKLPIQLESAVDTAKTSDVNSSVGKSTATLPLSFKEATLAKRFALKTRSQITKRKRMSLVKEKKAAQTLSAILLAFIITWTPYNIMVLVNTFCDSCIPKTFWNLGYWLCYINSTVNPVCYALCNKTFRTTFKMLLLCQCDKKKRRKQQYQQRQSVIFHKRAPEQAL

[6] = molecular target: T1, Muscarinic acetylcholine receptor M1; type: functional, cell-based, CHO; remark: listed apart in the source
Description: Effective concentration for HMPA (human muscarinic inositol phosphate accumulation) activity measured in CHO cells expressing Muscarinic acetylcholine receptor M1

[7] = molecular target: T5, Muscarinic acetylcholine receptor M1 (Homo sapiens) (UniProt P11229); details: CHO; at 100 µM
T5 sequence (whole entry): T1 sequence (P11229 whole entry)
Description: Evaluated for its HMPA (human muscarinic inositol phosphate accumulation) activity measured in CHO cells expressing Muscarinic acetylcholine receptor M1 compound run at 100 uM

[8] = molecular target: T4, Muscarinic acetylcholine receptor M3; test: Evaluated for its MIPA (muscarinic-stimulated inositol phosphate accumulation) activity measured in SK-N-SH neuroblastoma cells expressing human m3 receptor, compound run at 100 uM;100 uM of carbachol was used; type: functional, cell-based
Target sequence in this assay (P20309 whole entry, looked up): as above

[9] = molecular target: T4, Muscarinic acetylcholine receptor M3; type: functional, cell-based, SK-N-SH
Target sequence in this assay (P20309 whole entry): as the sequence (P20309 whole entry, looked up) above
Description: Effective concentration for MIPA (muscarinic-stimulated inositol phosphate accumulation) activity in SK-N-SH neuroblastoma cells expressing human muscarinic M3 receptor

[10] = molecular target: T3, Muscarinic acetylcholine receptor M2; test: Compound was evaluated for inhibitory activity for Muscarinic acetylcholine receptor M2 using [3H]quinuclidinyl benzilate to label antagonist site (RQNB) in CHO cells; type: cell-based
[11] = molecular target: T1, Muscarinic acetylcholine receptor M1; test: Compound was evaluated for its inhibitory activity against human Muscarinic acetylcholine receptor M1 using [3H]quinuclidinyl benzilate to label antagonist site (RQNB) in CHO cells; Not active; type: cell-based
[12] = molecular target: T3, Muscarinic acetylcholine receptor M2; test: Compound was evaluated for inhibitory activity against human Muscarinic acetylcholine receptor M2 using [3H]quinuclidinyl benzilate to label antagonist site (RQNB) in CHO cells; Not active; type: cell-based
[13] = molecular target: T1, Muscarinic acetylcholine receptor M1; test: Compound was evaluated for its inhibitory activity against human Muscarinic acetylcholine receptor M1 using [3H]quinuclidinyl benzilate to label antagonist site (RQNB) in CHO cells; NA=Not active; type: cell-based
[14] = molecular target: T3, Muscarinic acetylcholine receptor M2; test: Compound was evaluated for inhibitory activity against human Muscarinic acetylcholine receptor M2 using [3H]quinuclidinyl benzilate to label antagonist site (RQNB) in CHO cells; NA: Not active; type: cell-based
[15] = molecular target: Muscarinic acetylcholine receptors; M1 & M2 (Homo sapiens) (UniProt P11229+P08172); test: Selectivity ratio for m1 over m2 muscarinic receptors was determined; NA=Not active; type: protein assay

| SMILES | IC50 [1] | IC50 [2] | IC50 [3] | IC50 [4] | CCh [5] | EC50 [6] | CCh [7] | CCh [8] | EC50 [9] | IC50 [10] | IC50 [11] | IC50 [12] | IC50 [13] | IC50 [14] | Ratio [15] |
| --- | --- | --- | --- | --- | --- | --- | --- | --- | --- | --- | --- | --- | --- | --- | --- |
| C#CC(C)O/N=C1\CN2CCC1C2 (stereo not drawn) | 3.69 µM | 0.035 µM | 3.984 µM | 5.28 µM | – | – | – | – | – | – | – | – | – | – | – |
| CCCO/N=C1\CN2CCC1C2 (stereo not drawn) | 3.68 µM | 0.12 µM | 0.032 µM | 3.98 µM | 3% | 27 µM | 44% | – | – | – | – | – | – | – | – |
| CCCCC#CCO/N=C1\CN2CCC1C2 (stereo not drawn) | 7.89 µM | 0.044 µM | 6.045 µM | 9.65 µM | – | – | – | – | – | – | – | – | – | – | – |
| CC(C)O/N=C1\CN2CCC1C2 (stereo not drawn) | 2.61 µM | 0.046 µM | 2.03 µM | 3.15 µM | – | – | – | – | – | – | – | – | – | – | – |
| C=CCC#CCO/N=C1\CN2CCC1C2 (stereo not drawn) | 9.44 µM | 0.032 µM | 7.313 µM | 15.9 µM | – | – | – | – | – | – | – | – | – | – | – |
| C[N+](C)(C)CC#CCOC(=O)Nc1cccc(Cl)c1.[Cl-] | 4 µM | 0.025 µM | 5.304 µM | 12.9 µM | – | 3.5 µM | 57% | 3% | – | – | – | – | – | – | – |
| CO/N=C1\CN2CCC1C2 (stereo not drawn) | 85 µM | – | 24.558 µM | 7.89 µM | 53% | – | – | – | 14.6 µM | – | – | – | – | – | – |
| C#CCCO/N=C1\CN2CCC1C2 (stereo not drawn) | 14.5 µM | 0.083 µM | 9.806 µM | 15.6 µM | – | – | – | – | – | – | – | – | – | – | – |
| CC#CCO/N=C1\CN2CCC1C2 (stereo not drawn) | 5.81 µM | 0.004 µM | 4.214 µM | 1.7 µM | – | 1.9 µM | 63% | 49% | 8.8 µM | – | – | – | – | – | – |
| CCC#CCO/N=C1\CN2CCC1C2 (stereo not drawn) | 4.9 µM | 0.0036 µM | 5.976 µM | 8.6 µM | 56% | 5.9 µM | 72% | – | 9.6 µM | – | – | – | – | – | – |
| CCCC#CCO/N=C1\CN2CCC1C2 (stereo not drawn) | 9.64 µM | 0.048 µM | 8.689 µM | – | – | – | – | – | – | 20.6 µM | – | – | – | – | – |
| O/N=C1\CN2CCC1C2 (stereo not drawn) | – | > 0.1 µM | > 1 µM | – | – | – | – | – | – | – | Not Active | Not Active | – | – | – |
| COCC#CCO/N=C1\CN2CCC1C2 (stereo not drawn) | 42.4 µM | 0.055 µM | 35.434 µM | 59.3 µM | – | – | – | – | – | – | – | – | – | – | – |
| CCO/N=C1\CN2CCC1C2 (stereo not drawn) | – | 0.0125 µM | 3.112 µM | – | 19% | – | – | – | 8.9 µM | – | – | – | – | – | – |
| C#CCC#CCO/N=C1\CN2CCC1C2 (stereo not drawn) | 10 µM | – | 8.834 µM | 2.84 µM | 14% | 4.7 µM | 79% | – | 16.4 µM | – | – | – | – | – | – |
| C#CCO/N=C1\CN2CCC1C2 (stereo not drawn) | 9.51 µM | – | 4.359 µM | 1.04 µM | 51% | 0.89 µM | 104% | – | 8.4 µM | – | – | – | – | – | – |
| C#C/C=C/CO/N=C1\CN2CCC1C2 (stereo not drawn) | 12.6 µM | – | 13.85 µM | 30.2 µM | – | – | – | – | – | – | – | – | – | – | – |
| C(#Cc1ccccc1)CO/N=C1\CN2CCC1C2 (stereo not drawn) | 5.42 µM | – | 5.012 µM | 25.8 µM | 11% | 3.3 µM | 76% | – | – | – | – | – | – | – | – |
| C#CCC#CCC#CCO/N=C1\CN2CCC1C2 (stereo not drawn) | 2.03 µM | – | 0.958 µM | 2.18 µM | 0% | 5.1 µM | 50% | – | – | – | – | – | – | – | – |
| Nc1noc(C2CN3CCC2C3)n1 (stereo not drawn) [OXADIAZOLE] | 0.4 µM | 0.0003 µM | 0.088 µM | 0.02 µM | 0.269% | 100 µM | 293% | – | 104 µM | – | – | – | – | – | – |
| C#CCCCO/N=C1\CN2CCC1C2 (stereo not drawn) | – | 0.111 µM | 3.655 µM | – | – | – | – | – | – | – | – | – | Not Active | Not Active | inactive |
| CC#CCC#CCO/N=C1\CN2CCC1C2 (stereo not drawn) | 5.68 µM | 0.039 µM | 2.914 µM | 5.08 µM | 2% | 5.05 µM | 81% | – | – | – | – | – | – | – | – |
| CC(C)(C)O/N=C1\CN2CCC1C2 (stereo not drawn) | 3.84 µM | 0.091 µM | 3.54 µM | 4.46 µM | – | – | – | – | – | – | – | – | – | – | – |
| C1CC(O/N=C2\CN3CCC2C3)C1 (stereo not drawn) | 1.11 µM | 0.088 µM | 1.156 µM | 1.63 µM | – | – | – | – | – | – | – | – | – | – | – |
